Experimental data published in patent US4406875A, “Radiolabeled amine compounds and their use” (Byk-Mallinckrodt CIL B.V., priority 1979, dated 1983).

Legend:
blood clot factor XIII = test: In vitro incorporation of the radiolabeled compound in casein by blood clot factor XIII (Km, Lineweaver-Burke plot); type: biochemical
Description: Incorporation of the radiolabeled compound produced in Example I in fibrin by means of the blood clot factor XIII was investigated in vitro in the following manner:
To about 400 ul of a physiolgical salt solution containing 10 units of Factor XIII per ml, the following solutions were successively added; (a) about 500 ul of 0.5 molar solution of cystein in a buffer solution of tris(hydroxymethyl)aminomethane having a pH of 7.4, (b) about 100 ul of a buffer solution of tris (hydroxymethyl) aminomethane having a pH of about 7.4 and in which about 250 units of thrombine per ml had been dissolved, (c) about 1200 ul of a buffer solution of tris(hydroxymethyl) aminomethane, (d) about 50 ul of 0.4 molar solution of calcium chloride in water, and (e) about 200 ul of 5% solution of casein in water. […]
After incubation of the test solutions at about 37° C. for about 15 minutes, the reaction was discontinued by the addition of about 200 ul of a 1 molar solution of monoidoacetic acid which has been brought to a pH of about 7.4 by a sodium hydroxide solution. […] The radioactivity in the high-molecular fraction was then measured to determine if the radiolabeled sulfonamide compound had indeed been incorporated into the casein. […]

fibrin = test: Incorporation of the radiolabeled compound into a fibrin clot (human fibrinogen, Factor XIII, human thrombin); type: biochemical; conditions: incubated about three and a half hours at about 37° C.; clot washed three times
Description: The radiolabeled amine compound N-(5-aminopentyl)-5-iodonaphthalenesulfonamide,I-125 is tested for its ability to be incorporated into fibrin.
The following solutions are mixed in a polystyrene test tube; (a) about 1 ml of a solution containing about 5 mg/ml of human fibrinogen (about 1.5×10^-5 M) and a tris-HCl buffer in a concentration of about 5×10^-3 M, the solution having a pH of about 7.4, (b) about 0.1 ml of a saline solution containing about 4×10^-2 units of blood Factor XIII, (c) about 0.1 ml of a 0.05 M cysteine solution having a pH of about 7.4, and (d) about 0.1 ml of a solution containing the N-(5-aminopentyl)-5-iodonaphthalenesulfonamide,I-125 compound in a concentration of about 2.3×10^-5 mmole and a radioactivity of about 1 μCi. Thereafter, about 0.2 ml of solution of about 0.05 M tris buffer and about 0.025 M CaCl2 which contains about 10 NIH units of human thrombin and has a pH of about 7.4 is added.
The resultant mixture is then incubated for about three and a half hours at about 37° C. whereupon a fibrin clot is formed. […] The radioactivity of the solution and the clot are then measured in a suitable detection apparatus. From these radioactivity measurements, it is determined that about 15% of the initial radioactivity is incorporated into the fibrin clot.

[1] = Stability towards deiodination and tissue incorporation after intravenous administration to rabbits; type: in vivo, New Zealand white rabbits; conditions: rabbit
Description: The radiolabeled amine compound N-(5-aminopentyl)-5-iodonaphthalenesulfonamide,I-`125 is tested for stability towards deiodination and for tissue incorporation by administering the compound to rabbits.
Two test solutions each of about 0.5 mCi of the above compound (spec. activity of about 1 mCi/mg) in about 1.45 ml of a physiological saline solution are prepared. A test solution is then intravenously administered to two New Zealand white rabbits, each weighing about 3 kg.
A blood sample is then taken from each rabbit at 12, 24, 36 and 72 hour periods after administration. The radioactivity of about 1 g of blood from samples for each time period is then measured. The measurements indicate that the radioactivity in the blood decreases slowly and that at about 72 hours after administration, about 20% of the initial radioactivity is still present in the blood. Due to the relatively slow disappearance of the subject compound from the bloodstream, the compound is therefore available in the bloodstream for a prolonged period of time which thereby increases its suitability to become incorporated into an occurring thrombus.
At the end of the 72 hour period, the rabbits are sacrificed and thereafter, the thyroid, liver, kidneys, lung, stomach wall, parotid glands, brains, muscle and bone tissue are removed and portions are measured for radioactivity. The thyroid contains only about 0.05% of the injected dose per gram which thereby indicates the stability of the subject compound towards deiodination. […] The liver contains about 0.04% and the gall bladder contains about 0.1% of the injected dose while the kidneys and the urine both contain about 0.3% of the dose.

| Km (blood clot factor XIII; casein as acceptor, 37° C., 15 minutes, pH 7.4, Lineweaver-Burke plot from measured radioactivity) | radioactivity in gall bladder ([1]; 72 hours) | radioactivity in kidneys ([1]; 72 hours) | radioactivity in liver ([1]; 72 hours) | radioactivity in urine ([1]; 72 hours) | initial radioactivity still present in the blood ([1]; about 0.5 mCi, about 72 hours after administration) | tissue uptake at 72 h ([1]; thyroid, 72 hours, indicates stability towards deiodination, read-out: radioactivity in thyroid) | SMILES | incorporation in casein (in words) (blood clot factor XIII; casein) | initial radioactivity incorporated into the fibrin clot (fibrin) |
| --- | --- | --- | --- | --- | --- | --- | --- | --- | --- |
| 250 µM |  |  |  |  |  |  | NCCCCCNS(=O)(=O)c1cccc2c([131I])cccc12 [N-(5-aminopentyl)-5-iodonaphthalene-1-sulfonamide-I-131] | amply sufficient to be incorporated efficiently in casein |  |
|  | about 0.1 % of the injected dose | about 0.3 % of the dose | about 0.04 % of the injected dose | about 0.3 % of the dose | about 20% | ~0.05 %ID/g | NCCCCCNS(=O)(=O)c1cccc2c([125I])cccc12 [N-(5-aminopentyl)-5-iodonaphthalenesulfonamide,I-125] |  | about 15% |
